Measured values taken from patent publication US12145920B2, “Lanthionine c-like protein 2 ligands, cells prepared therewith, and therapies using same” (NImmune Biopharma, Inc., priority 2019, dated 2024).

Assays:
[1] = Pharmacokinetics after oral dosing in mice, plasma LC-MS/MS; assay type: in vivo, C57BL/6 mice; set-up: exposure: unit not given here
Experimental: C57BL/6 mice were dosed orally with 10 and 40 mg/kg of BT-63 by oral gavage of methylcellulose solution containing BT-63. After gavage, blood was collected at 0.5, 1, 2, 4, 6, 8, 12 and 24 hours after treatment. Plasma was collected from blood by centrifugation. BT-63 was extracted from plasma and quantified by LC-MS/MS.

[2] = tested on: resiquimod-treated C57BL6 mice; test: TLR7/9 (resiquimod) induced mouse model of SLE; assay type: in vivo
Experimental: Resiquimod model. Resiquimod was prepared in a 1:3 ethanol:acetone mixture to provide 85 micrograms of resiquimod to each mouse. Resiquimod solution was well mixed and applied to the ear of C57BL6 mice three times weekly over a 2-week period. Mice were monitored for signs of disease daily.
Treatment administration. BT-63 was prepared within a 0.5% methylcellulose (12-15 cP) solution. Dosage used was 20 mg/kg delivered once daily. Mice were weighed on a weekly basis to update dosage formulation. Dosage was calculated based off mean body weights for each gender. Oral dosage was delivered by orogastric gavage of dosage in 0.2 mL volume.
Immunological analysis. Blood was collected by cardiac puncture into EDTA tube. Plasma was separated following centrifugation and assayed by ELISA for anti-dsDNA antibodies. Urine was collected for assay for albumin content to test for kidney function.
Spleens were excised, crushed and filtered to provide a cellular suspension. Red blood cells were lysed. Cells were labeled with mixtures of extracellular (CD45, CD3, CD4, CD8, CD19, NK1.1, CD25, F4/80, CD11b, Gr1, CX3CR1, CD64) and intracellular (Tbet, BCL6, FOXP3, IFNγ, IL6, IL10) antibodies in a sequential live staining in 96-well plates in preparation for flow cytometry. Data was captured on a BD FACS Celesta and analyzed using FacsDiva.

influenza A (H1N1) = test: Mouse model of influenza A virus infection; assay type: in vivo, C57BL/6 mice
Experimental: Mouse model. Eight- to ten-week old wild type C57BL/6 mice were anesthetized by isoflurane inhalation. Mice were infected with influenza A (H1N1) intranasally at a challenge titer of 350 pfu/mouse. Mice were treated daily with BT-63 at a dose of 20 mg/kg orally via gavage. Mice were weighed and scored daily over 12 days. Mice were euthanized at days 12 to measure immune responses by flow cytometry in the lungs.
Flow Cytometry. Lungs will be chopped into small pieces and collected into RPMI/FBS/CaCl2 buffer containing collagenase (300 U/mL) and DNase (50 U/mL) for digestion. Tissues will be digested for 60 to 90 minutes under stirring at 37° C. Resultant cellular suspensions will be filtered through 100 μm strainers, centrifuged (300×g, 8 min), and washed in fresh RPMI. Red blood cells will be lysed by hypotonic lysis and removed by filtration. Cells will be washed and plated for flow cytometry staining. Cells will be labeled with mixtures of extracellular (CD45, CD3, CD4, CD8, CD19, NK1.1, CD25, F4/80, CD11b, CD11c, Gr1, CX3CR1, CD64, SiglecF, Ly6C) and intracellular (Tbet, RORγT, FOXP3, IFNγ, IL6, IL10, IFNb) antibodies in a sequential live staining in 96-well plates. Data will be acquired using a FACS Celesta flow cytometer with FACSDiva software.

Naïve CD4+ T cells = test: In vitro Treg differentiation of naive CD4+ T cells with BT-63; assay type: cell-based, mice
Experimental: Naïve CD4+ T cells can be isolated from the spleens of mice by magnetic sorting. The isolated cells can be incubated in anti-CD^3/anti-CD28 coated 96 well plates in Treg differentiation media. The Treg differentiation media can be Iscove's Modified Dulbecco's Medium (IMDM) media (ThermoFisher Scientific) supplemented with fetal bovine serum, HEPES, penicillin/streptomycin, L-glutamine, and differentiation agents. The Treg differentiation agents can be 10 nM all-trans-retinoic acid and 5 ng/mL TGF-β. Additional experiments can be conducted comparing differentiation in the Treg differentiation media with and without the addition of 10 ng/mL IL-2 or IL-12. Cells can be incubated with vehicle, 10 nM, or 100 nM BT-63 in differentiation media for 48 hours prior to assay. Prior to assay, cells can be stimulated with PMA and ionomycin for 6 hours.
Colonic lamina propria lymphocytes and cultured cells can be plated in 96 well plates (6×10^5 cells/well) and processed for immunophenotyping by flow cytometry as previously described. Briefly, cells can be incubated with fluorochrome conjugated antibodies to extracellular markers: CD45, CD4, CD3, CD25, CD8. Samples needing a secondary staining can be incubated with secondary antibodies, or streptavidin-conjugated fluorochrome. The samples can then be fixed and permeabilized. Cells can be incubated with antibodies to intracellular markers: Tbet, IFNγ, IL10, FOXP3, IL17, RORγT. Data can be acquired with a BD FACS Celesta flow cytometer and analyzed using FACS Diva software (BD Pharmingen).

[3] = tested on: colonic CD4+ T cells from Mdr1a-/- mice; test: Gene expression in colonic CD4+ T cells of treated Mdr1a-/- mice; assay type: in vivo; details: oral treatment, 10 weeks of age
Text: To identify signaling pathways modulated by BT-63 in vivo, we will isolate colonic CD4+ T cells from vehicle- and BT-63-treated Mdr1a−/− mice at presentation of colitis at 10 weeks of age. […] Meanwhile, expression of Pten and Ph1pp1 will increase. […] Cells will also be differentiated in the presence of inhibitors for PTEN (SF1670) or STATS (STAT5i). In the Treg differentiation media containing both IL-2 or IL-12, the addition of STAT5i will prevent the effects of BT-63 on CD25+ FOXP3+ and CD25+ Tbet+ cells. In contrast, SF1670 only will prevent effects of BT-63 on CD25+ Tbet+ cells in IL-2 containing media.

[4] = 2 weeks of oral treatment, 20 mg/kg
[5] = lung, day 12 post-infection, 20 mg/kg
[6] = lungs, day 12 post-infection, 20 mg/kg

Which “increase in maximum plasma concentration compared to BT-11” value ([1]; equal oral doses (10 mg/kg)) does the source give for `O=C(CN1CCN(C(=O)c2cccc(-c3nc4ccccc4[nH]3)n2)CC1)c1ccccc1` [BT-63, 2-(4-(6-(1H-benzo[d]imidazol-2-yl)picolinoyl)piperazin-1-yl)-1-phenylethanone] here?
The value was > 100 fold.

And the “area under the curve exposure” value ([1]; oral 10 mg/kg)?
The value was 1055 ng·h/mL.

And the maximum plasma concentration ([1]; oral 10 mg/kg)?
Its maximum plasma concentration is 585 ng/mL.

And the exposure ([1]; oral 40 mg/kg)?
The exposure was 11552.

What about the maximum plasma concentration ([1]; oral 40 mg/kg) of the same compound?
The maximum plasma concentration was 4465 ng/mL.

And the “concentration of anti-dsDNA antibodies in plasma” value [2, 4]?
The value was “reduces”.

What about the urine albumin content [2, 4] of the same compound?
The urine albumin content was “reduction”.

What about the “IFNγ+ CD8+ T cells” value ([2]; spleen, 2 weeks, 20 mg/kg oral) of the same compound?
Its value is “reduced”.

And the “IL6+ cells” value ([2]; spleen, 2 weeks, 20 mg/kg oral)?
The value was “reduced”.

What about the “increase in survival compared to vehicle” value (influenza A (H1N1); 12 days post-infection, 20 mg/kg oral daily) of the same compound?
Its value is “over 50%”.

And the disease activity index (influenza A (H1N1); day 3 through day 12 post-infection, 20 mg/kg oral vs vehicle)?
Its disease activity index is “significantly reduces”.

What about the “IL10+ CD8+ T cells” value (influenza A (H1N1); [5]) of the same compound?
Its value is “increases”.

What about the alveolar macrophages (influenza A (H1N1); [5]) of the same compound?
Its alveolar macrophages is “increases”.

And the “proportions of TNFa+ CD4+ T cells” value (influenza A (H1N1); [6])?
Its value is “decreased”.

And the proportions of neutrophils (influenza A (H1N1); [6])?
The proportions of neutrophils was “decreased”.

And the “establishment of a CD25+ FOXP3+ subtype” value (Naïve CD4+ T cells; 100 nM, absence of IL-2)?
Its value is “significantly increase”.

And the “CD25+ FOXP3+ cells” value (Naïve CD4+ T cells; IL-12-treated samples)?
Its value is “significantly higher levels”.

And the “mixed CD25+ Tbet+ subtype” value (Naïve CD4+ T cells; Treg differentiation with or without IL-2)?
Its value is “not be statistically altered”.

And the “CD25+ Tbet+ cells” value (Naïve CD4+ T cells; addition of IL-12)?
The value was “dose-dependent protection”.

And the STAT5a phosphorylation (Naïve CD4+ T cells; base Treg differentiation media, also with IL-2 or IL-12)?
Its STAT5a phosphorylation is “phosphorylated in a greater ratio”.

And the FOXO1 phosphorylation (Naïve CD4+ T cells; base media and media containing IL-2, not IL-12)?
Its FOXO1 phosphorylation is “similarly be affected”.

What about the “CD25+ FOXP3+ cells” value (Naïve CD4+ T cells; concentrations as low as 10 nM, presence of IL-2) of the same compound?
Its value is “significantly more”.

What about the “expression of Foxo1” value [3] of the same compound?
Its value is “significantly higher expression”.

And the “expression of Ph1pp1” value [3]?
Its value is “increase”.

And the “expression of Pten” value [3]?
Its value is “increase”.

What about the “expression of Stat5a” value [3] of the same compound?
The value was “significantly higher expression”.
